From PubChem BioAssay AID248 (DTP/NCI, 2004)
Several values for one entry are separate records, joined by “and”; a condition that tells them apart may be missing. Equal entries are not always repeated. Inconclusive results and toxic doses are left out. No stated cut-off is given here; in the data, active means T/C of 150% or more; inactive means T/C below 125%. Square brackets hold non-standard residues; d marks the D form. Peptide text beside a SMILES is read from it. * marks the point of attachment. Trt = c1ccc(C(c2ccccc2)(c2ccccc2)*)cc1; Cbz = O=C(OCc1ccccc1)*; Abu = CC[CH](N)C(=O)O; OBn = c1ccc(CO*)cc1; OtBu = CC(C)(C)O*

System: L1210 leukemia ip in BDF1 mice, survival T/C
Experiment: NCI In Vivo Anticancer Drug Screen. Data for tumor model L1210 Leukemia (intraperitoneal) in B6D2F1 (BDF1) mice
Conditions: endpoint: mean survival time, higher = longer survival
How it was run: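 Antitumor effect is assessed in tumor-bearing animals. Survival in the compound arm is compared with a vehicle-dosed control arm and expressed as their quotient.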

[1] = dose: 100.0 mg/kg/injection, schedule: Q04DX003 (ip), vehicle: other
[2] = dose: 100.0 mg/kg/injection, schedule: Q04DX003 (ip), vehicle: saline
[3] = dose: 200.0 mg/kg/injection, schedule: Q04DX003 (ip), vehicle: saline
[4] = dose: 400.0 mg/kg/injection, schedule: Q04DX003 (ip), vehicle: saline
[5] = dose: 75.0 mg/kg/injection, schedule: Q01DX001 (ip), vehicle: carboxymethylcellulose (CMC)
[6] = dose: 150.0 mg/kg/injection, schedule: Q01DX001 (ip), vehicle: carboxymethylcellulose (CMC)
[7] = dose: 50.0 mg/kg/injection, schedule: Q01DX001 (ip), vehicle: saline
[8] = dose: 100.0 mg/kg/injection, schedule: Q01DX001 (ip), vehicle: saline
[9] = dose: 200.0 mg/kg/injection, schedule: Q01DX001 (ip), vehicle: saline
[10] = dose: 400.0 mg/kg/injection, schedule: Q01DX001 (ip), vehicle: saline
[11] = dose: 50.0 mg/kg/injection, schedule: Q01DX009 (ip), vehicle: saline with Tween-80
[12] = dose: 200.0 mg/kg/injection, schedule: Q01DX009 (ip), vehicle: saline with Tween-80
[13] = dose: 400.0 mg/kg/injection, schedule: Q01DX009 (ip), vehicle: saline with Tween-80
[14] = dose: 100.0 mg/kg/injection, schedule: Q01DX009 (ip), vehicle: Klucel (hydroxypropylcellulose) (HPC)
[15] = dose: 100.0 mg/kg/injection, schedule: Q04DX003 (ip), vehicle: Klucel (hydroxypropylcellulose) (HPC)
[16] = dose: 200.0 mg/kg/injection, schedule: Q01DX009 (ip), vehicle: Klucel (hydroxypropylcellulose) (HPC)
[17] = dose: 200.0 mg/kg/injection, schedule: Q04DX003 (ip), vehicle: Klucel (hydroxypropylcellulose) (HPC)
[18] = dose: 400.0 mg/kg/injection, schedule: Q01DX009 (ip), vehicle: Klucel (hydroxypropylcellulose) (HPC)
[19] = dose: 400.0 mg/kg/injection, schedule: Q04DX003 (ip), vehicle: Klucel (hydroxypropylcellulose) (HPC)
[20] = dose: 100.0 mg/kg/injection, schedule: Q01DX009 (ip), vehicle: saline with Tween-80

Measured: T/C

O=C(CSCC(=O)c1ccc(Br)cc1)c1ccc(Br)cc1
inactive: [1] 101 % of control | dose: 200.0 mg/kg/injection, schedule: Q04DX003 (ip), vehicle: other 93 % of control | dose: 400.0 mg/kg/injection, schedule: Q04DX003 (ip), vehicle: other 86 % of control

O=c1[n-]cc(F)c(=O)[nH]1.O=c1[n-]cc(F)c(=O)[nH]1.[NH2-].[NH2-].[Pt+4]
inactive: dose: 6.25 mg/kg/injection, schedule: Q03HX024 (ip), vehicle: saline with Tween-80 97 % of control | dose: 12.5 mg/kg/injection, schedule: Q03HX024 (ip), vehicle: saline with Tween-80 101 % of control | dose: 25.0 mg/kg/injection, schedule: Q03HX024 (ip), vehicle: saline with Tween-80 99 % of control | dose: 50.0 mg/kg/injection, schedule: Q03HX024 (ip), vehicle: saline with Tween-80 118 % of control | dose: 100.0 mg/kg/injection, schedule: Q01DX009 (ip), vehicle: saline 115 % of control and 105 % of control | [2] 108 % of control and 92 % of control and 97 % of control | dose: 200.0 mg/kg/injection, schedule: Q01DX009 (ip), vehicle: saline 124 % of control and 114 % of control | [3] 93 % of control and 113 % of control and 97 % of control | dose: 400.0 mg/kg/injection, schedule: Q01DX009 (ip), vehicle: saline 109 % of control | [4] 120 % of control and 124 % of control and 101 % of control

C[N+](C)(C)CCS(=O)(=O)Cc1ccccc1
inactive: [5] 110 % of control | [6] 108 % of control | dose: 300.0 mg/kg/injection, schedule: Q01DX001 (ip), vehicle: carboxymethylcellulose (CMC) 96 % of control

[O]=[V]([OH])([OH])[OH]
inactive: dose: 2.0 mg/kg/injection, schedule: Q01DX015 (ip), vehicle: saline 101 % of control | dose: 4.0 mg/kg/injection, schedule: Q01DX015 (ip), vehicle: saline 103 % of control | dose: 8.0 mg/kg/injection, schedule: Q01DX015 (ip), vehicle: saline 103 % of control | dose: 12.5 mg/kg/injection, schedule: Q01DX001 (ip), vehicle: saline 113 % of control | dose: 16.0 mg/kg/injection, schedule: Q01DX015 (ip), vehicle: saline 108 % of control | dose: 25.0 mg/kg/injection, schedule: Q01DX001 (ip), vehicle: saline 96 % of control | dose: 32.0 mg/kg/injection, schedule: Q01DX015 (ip), vehicle: saline 103 % of control | [7] 98 % of control | dose: 64.0 mg/kg/injection, schedule: Q01DX015 (ip), vehicle: saline 88 % of control

COc1ccccc1CCCO
inactive: [7] 97 % of control | [8] 105 % of control | [9] 100 % of control | [10] 105 % of control

OC1CC2CCC(C1)N2CCCN1c2ccccc2Sc2ccc(Cl)cc21 (stereo not drawn)
inactive: dose: 25.0 mg/kg/injection, schedule: Q01DX009 (ip), vehicle: saline with Tween-80 112 % of control | [11] 87 % of control | dose: 50.0 mg/kg/injection, schedule: Q04DX003 (ip), vehicle: saline with Tween-80 97 % of control | dose: 100.0 mg/kg/injection, schedule: Q04DX003 (ip), vehicle: saline with Tween-80 112 % of control | dose: 133.0 mg/kg/injection, schedule: Q04DX003 (ip), vehicle: saline with Tween-80 107 % of control

Cc1cc(C)c(OS(=O)(=O)c2ccc([N+](=O)[O-])cc2)c(C)c1
inactive: [12] 87 % of control | [13] 89 % of control

CCN(CC)c1ccc(Cc2ccc(N(CC)CC)cc2Br)c(Br)c1
inactive: [14] 100 % of control | [15] 96 % of control | [16] 105 % of control | [17] 104 % of control | [18] 107 % of control | [19] 94 % of control

O=[N+]([O-])c1ccc(/C=N\Nc2ccc([N+](=O)[O-])cn2)cc1
inactive: [11] 91 % of control | dose: 100.0 mg/kg/injection, schedule: Q01DX009 (ip), vehicle: saline sonified 92 % of control | [20] 95 % of control | [15] 94 % of control | dose: 200.0 mg/kg/injection, schedule: Q01DX009 (ip), vehicle: saline sonified 87 % of control | [12] 87 % of control | [17] 93 % of control | dose: 400.0 mg/kg/injection, schedule: Q01DX009 (ip), vehicle: saline sonified 95 % of control | [19] 101 % of control

Cc1c(Cl)cccc1Nc1n[nH]c(=S)s1
inactive: dose: 75.0 mg/kg/injection, schedule: Q01DX001 (ip), vehicle: other 98 % of control | dose: 150.0 mg/kg/injection, schedule: Q01DX001 (ip), vehicle: other 98 % of control | dose: 300.0 mg/kg/injection, schedule: Q01DX001 (ip), vehicle: other 93 % of control

CCC(NC(=O)OCc1ccccc1)C(=O)NC(C(=O)OCc1ccccc1)C(C)C (stereo not drawn) (Cbz-[Abu]-Val-OBn; configuration not given here)
inactive: [14] 96 % of control | [16] 99 % of control | [18] 96 % of control

CCCCCCNCCC[P+](c1ccccc1)(c1ccccc1)c1ccccc1
inactive: dose: 12.5 mg/kg/injection, schedule: Q04DX002 (ip), vehicle: saline 91 % of control | dose: 25.0 mg/kg/injection, schedule: Q04DX002 (ip), vehicle: saline 98 % of control | dose: 50.0 mg/kg/injection, schedule: Q04DX002 (ip), vehicle: saline 98 % of control

Cc1ccc(OS(=O)(=O)C2CC2c2ccccc2)cc1 (stereo not drawn)
inactive: [8] 92 % of control | [2] 102 % of control | [9] 97 % of control | [3] 98 % of control | [10] 98 % of control | [4] 94 % of control

CC(=O)c1ccc[n+](Cc2ccc3c(c2)OCO3)c1
inactive: [5] 103 % of control | [6] 109 % of control

C[n+]1ccccc1/C=C/c1ccc2c(c1)OCO2
inactive: dose: 12.5 mg/kg/injection, schedule: Q01DX009 (ip), vehicle: Klucel (hydroxypropylcellulose) (HPC) 94 % of control | dose: 12.5 mg/kg/injection, schedule: Q04DX003 (ip), vehicle: Klucel (hydroxypropylcellulose) (HPC) 95 % of control | dose: 25.0 mg/kg/injection, schedule: Q01DX009 (ip), vehicle: Klucel (hydroxypropylcellulose) (HPC) 92 % of control | dose: 25.0 mg/kg/injection, schedule: Q04DX003 (ip), vehicle: Klucel (hydroxypropylcellulose) (HPC) 94 % of control

COC1=CC=C2C3Cc4ccc(OC)c(O)c4C2(C1)CN3C (stereo not drawn)
inactive: [1] 96 % of control

O=C1CCCC2C(=O)CCCC12 (stereo not drawn)
inactive: dose: 100.0 mg/kg/injection, schedule: Q## X003 (ip), vehicle: saline 102 % of control | dose: 200.0 mg/kg/injection, schedule: Q## X003 (ip), vehicle: saline 98 % of control | dose: 400.0 mg/kg/injection, schedule: Q## X003 (ip), vehicle: saline 101 % of control

CC(C)(C)CC(=O)OCCC[N+](C)(C)C
inactive: dose: 25.0 mg/kg/injection, schedule: Q01DX009 (ip), vehicle: water 104 % of control | dose: 50.0 mg/kg/injection, schedule: Q01DX009 (ip), vehicle: water 106 % of control

Cc1cc2oc(=O)c(Cl)c(NCCO)c2c(C)c1Cl
inactive: [20] 104 % of control | [12] 96 % of control | [13] 95 % of control

CCC#CC(=O)CC
inactive: dose: 7.5 mg/kg/injection, schedule: Q04DX003 (ip), vehicle: saline 94 % of control | dose: 15.0 mg/kg/injection, schedule: Q04DX003 (ip), vehicle: saline 94 % of control | dose: 30.0 mg/kg/injection, schedule: Q04DX003 (ip), vehicle: saline 95 % of control

CC(C)(C)OC(=O)CNC(=O)C(Cc1ccccc1)NC(=O)C(N)CSC(c1ccccc1)(c1ccccc1)c1ccccc1 (stereo not drawn) (H-Cys(Trt)-Phe-Gly-OtBu; configuration not given here)
inactive: dose: 264.0 mg/kg/injection, schedule: Q01DX001 (ip), vehicle: carboxymethylcellulose (CMC) 104 % of control | dose: 264.0 mg/kg/injection, schedule: Q01DX001 (ip), vehicle: saline 110 % of control | dose: 400.0 mg/kg/injection, schedule: Q01DX001 (ip), vehicle: carboxymethylcellulose (CMC) 107 % of control | [10] 115 % of control
